These results are taken from patent EP4778933A1 (Chengdu Hyperway Pharmaceuticals Co., Ltd., priority 2023, dated 2025).

Like-named read-outs stand apart in the source and are kept apart here.

For series [1], the system named is KRAS G12D-mediated ERK phosphorylation. Briefly: Inhibition of KRAS G12D-mediated ERK phosphorylation in AGS cells (in-cell pERK/GAPDH immunofluorescence). It counts as cell-based. Here is the method: (§1) Day 1: AGS cells, SW480 cells, NCI H358 cells, HCT116 cells, and KP2 cells were seeded into 384-well cell culture plates and cultured overnight in a 37°C, 5% CO2 incubator.
(§2) Day 2: The compounds were added to the plates using Echo550 and incubated for 3 h in a 37°C, 5% CO2 incubator. Then, cells fixed with paraformaldehyde, permeated with methanol and blocked with a blocking solution were added. Finally, a mixed solution of primary antibodies (rabbit anti pERK, mouse anti GAPDH) was added, and the mixture was incubated overnight at 4°C.
(§3) Day 3: The mixed solution of primary antibodies was discarded, and a mixed solution of secondary antibodies (goat anti rabbit 800 CW, goat anti mouse 680 RD) was added. The resulting mixture was incubated at room temperature in the dark. Finally, the cell culture plate was washed with PBST, and then inverted for 1 minute of centrifugation. The fluorescence signal values were read with Odyssey CLx.
(§4) ERK phosphorylation was calculated according to the following formula: [formula] • Negative control: DMSO • Positive control: 10 µM Reference • IC50 value was fitted and calculated by XLFit 5.0 using the parametric formula. • Y = Bottom+(Top-Bottom)/(1+10^((LogIC50-X)*HillSlope)) • X: log value of compound concentration. • Y: average value of relative expression of p-ERK between replicate wells.

Series [2] is described as follows: In vivo pharmacokinetic test in mice. Conditions: single dose 30 mg/kg, plasma. As for the experimental part:
Each test compound was administered orally once to female BALB/c mice for pharmacokinetic study. The test compounds were prepared on the day of administration. The oral administration solvent: 50 mM sodium citrate (pH 5.0) + 10% captisol. The oral administration was conducted in a dose of 30 mg/kg. The animals were fasted for 10-14 h before oral administration, and the feeding was resumed 4 h after administration. Pharmacokinetic samples were collected through the orbit. The collection time points were: 15 min, 30 min, 1 h, 2 h, 4 h, 6 h, 8 h and 24 h after administration. Three whole blood samples were collected at each time point, with a collection volume of about 0.2 mL, and anticoagulated with sodium heparin. After blood samples were collected, they were immediately placed on ice and centrifuged within 1 h to isolate plasma (centrifugation conditions: 8000 rpm, 1 min, 2-8°C). The collected plasma was stored in a -20°C refrigerator before analysis. The concentrations of compounds in the plasma samples were determined using an LC-MS/MS analysis method.

Series [3] deals with KRAS G12V-mediated ERK phosphorylation. Briefly: Inhibition of KRAS G12V-mediated ERK phosphorylation in SW480 cells. It counts as cell-based. Conditions: 3 h incubation, read-out: Inhibitory activity on ERK phosphorylation (IC50) SW480-G12V. Here is the method: as §1, §2, §3, §4
Where [4] appears, read: AGS cells, 3 h incubation, read-out: Inhibitory activity on ERK phosphorylation (IC50) AGS-G12D.
The mark [5] stands for this setting: female BALB/c mice, oral, 30 mg/kg.
[6] abbreviates: Homo sapiens, AGS, 3 h, AGS cells, 3 h incubation, read-out: Inhibitory activity on ERK phosphorylation (IC50) AGS-G12D.

With `CC1(O)COCCN(c2nc(OCC34CCCN3C(c3cc(F)c(F)c(F)c3)CC4)nc3c(F)c(-c4cccc5sc(N)c(C#N)c45)c(I)cc23)C1` (single isomer, unassigned) [Example 28, 2-amino-4-[6-iodo-8-fluoro-4-(6-hydroxy-6-methyl-1,4-oxazepan-4-yl)-2-({[3-(3,4,5-trifluorophenyl)-2,3,5,6,7,7a-hexahydro-1H-pyrrolizin-7a-yl]methyl}oxy)quinazolin-7-yl]benzo[b]thiophene-3-carbonitrile], in series [1] (setting [4]), the IC50 worked out at 4.2 nM. Besides, the AUC in series [2] (setting [5]) is 9224 ng·h/mL. Further, the Cmax in series [2] (female, BALB/c, mouse, po, 30 mg/kg, read-out: Cmax) was 3290 ng/mL.
With `CC1(O)COCCN(c2nc(OCC34CCCN3C(c3cc(F)c(F)c(F)c3)CC4)nc3c(F)c(-c4ccc(F)c5sc(N)c(C#N)c45)c(Cl)cc23)C1` (single isomer, unassigned) [Example 13, 2-amino-4-[6-chloro-8-fluoro-4-(6-hydroxy-6-methyl-1,4-oxazepan-4-yl)-2-({[3-(3,4,5-trifluorophenyl)-2,3,5,6,7,7a-hexahydro-1H-pyrrolizin-7a-yl]methyl}oxy)quinazolin-7-yl]-7-fluorobenzo[b]thiophene-3-carbonitrile], in series [3], the IC50 came to 16 nM.
Regarding `CC1(O)COCCN(c2nc(OCC34CCCN3C(c3cc(F)c(F)c(F)c3)CC4)nc3c(F)c(-c4ccc(F)c5sc(N)c(C#N)c45)c(Cl)cc23)C1` (single isomer, unassigned) [Example 9, 2-amino-4-[6-chloro-8-fluoro-4-(6-hydroxy-6-methyl-1,4-oxazepan-4-yl)-2-({[3-(3,4,5-trifluorophenyl)-2,3,5,6,7,7a-hexahydro-1H-pyrrolizin-7a-yl]methyl}oxy)quinazolin-7-yl]-7-fluorobenzo[b]thiophene-3-carbonitrile], the concentration for half-maximal inhibition (IC50) in series [1] (setting [4]) is 27 nM. Also, in series [2] (setting [5]), the exposure (AUC) was 5181 ng·h/mL and the Cmax is listed as 1897 ng/mL.
As to `CC1(O)COCCN(c2nc(OCC34CCCN3C(c3cc(F)c(F)c(F)c3)CC4)nc3c(F)c(-c4ccc(F)c5sc(N)c(C#N)c45)c(Cl)cc23)C1` (single isomer, unassigned) [Example 11, 2-amino-4-[6-chloro-8-fluoro-4-(6-hydroxy-6-methyl-1,4-oxazepan-4-yl)-2-({[3-(3,4,5-trifluorophenyl)-2,3,5,6,7,7a-hexahydro-1H-pyrrolizin-7a-yl]methyl}oxy)quinazolin-7-yl]-7-fluorobenzo[b]thiophene-3-carbonitrile], the IC50 in series [3] was over 1000 nM.
As for `N#Cc1c(N)sc2c(F)ccc(-c3c(Cl)cc4c(N5CCOCC5)nc(OC[C@@]56CCCN5[C@H](c5cc(F)c(F)c(F)c5)CC6)nc4c3F)c12` (relative stereo) [Example 17], the IC50 in series [1] (Homo sapiens, AGS cells, 3 h incubation, read-out: Inhibitory activity on ERK phosphorylation (IC50) AGS-G12D) was 41 nM. Also, the AUC in series [2] (mouse, female BALB/c mice, oral, read-out: AUC) worked out at 3990 ng·h/mL. The highest concentration (Cmax) in series [2] (mouse, female BALB/c mice, oral, read-out: Cmax) was 1490 ng/mL.
With `CC1(O)COCCN(c2nc(OCC34CCCN3C(c3cc(F)c(F)c(F)c3)CC4)nc3c(F)c(-c4ccc(F)c5sc(N)c(C#N)c45)c(Cl)cc23)C1` (single isomer, unassigned) [Example 10, 2-amino-4-[6-chloro-8-fluoro-4-(6-hydroxy-6-methyl-1,4-oxazepan-4-yl)-2-({[3-(3,4,5-trifluorophenyl)-2,3,5,6,7,7a-hexahydro-1H-pyrrolizin-7a-yl]methyl}oxy)quinazolin-7-yl]-7-fluorobenzo[b]thiophene-3-carbonitrile], in series [3], the IC50 was over 1000 nM.
In the case of `CC1(O)COCCN(c2nc(OCC34CCCN3C(c3cc(F)c(F)c(F)c3)CC4)nc3c(F)c(-c4cccc5sc(N)c(C#N)c45)c(Cl)cc23)C1` (single isomer, unassigned) [Example 18, 2-amino-4-[6-chloro-8-fluoro-4-(6-hydroxy-6-methyl-1,4-oxazepan-4-yl)-2-({[3-(3,4,5-trifluorophenyl)-2,3,5,6,7,7a-hexahydro-1H-pyrrolizin-7a-yl]methyl}oxy)quinazolin-7-yl]benzo[b]thiophene-3-carbonitrile], the IC50 in series [1] (setting [4]) was 33 nM. In addition, in series [2] (setting [5]), the AUC came out at 6017 ng·h/mL and the peak concentration (Cmax) is reported as 2148 ng/mL.
For `CC1(O)COCCN(c2nc(OCC34CCCN3C(c3cc(F)c(F)c(F)c3)CC4)nc3c(F)c(-c4cccc5sc(N)c(C#N)c45)c(P(C)(C)=O)cc23)C1` (single isomer, unassigned) [Example 33, 2-amino-4-{6-[dimethyl(oxo)-15-methylphosphino]-8-fluoro-4-(6-hydroxy-6-methyl-1,4-oxazepan-4-yl)-2-({[3-(3,4,5-trifluorophenyl)-2,3,5,6,7,7a-hexahydro-1H-pyrrolizin-7a-yl]methyl}oxy)quinazolin-7-yl}benzo[b]thiophene-3-carbonitrile], the IC50 in series [1] (Homo sapiens, AGS, 3 h, read-out: Inhibitory activity on ERK phosphorylation (IC50) AGS-G12D, AGS cells, 3 h incubation) came out at 196 nM.
Take `N#Cc1c(N)sc2cccc(-c3c(Cl)cc4c(N5CCNOCC5)nc(OCC56CCCN5C(c5cc(F)c(F)c(F)c5)CC6)nc4c3F)c12` (single isomer, unassigned) [Example 34, 2-amino-4-[6-chloro-8-fluoro-4-(1,2,5-oxadiazepan-5-yl)-2-({[3-(3,4,5-trifluorophenyl)-2,3,5,6,7,7a-hexahydro-1H-pyrrolizin-7a-yl]methyl}oxy)quinazolin-7-yl]benzo[b]thiophene-3-carbonitrile]: the concentration for half-maximal inhibition (IC50) in series [1] (setting [6]) was found to be 67 nM.
`CC1(O)COCCN(c2nc(OCC34CCCN3C(c3cc(F)c(F)c(F)c3)CC4)nc3c(F)c(-c4cccc5sc(N)c(C#N)c45)c(Cl)cc23)C1` (single isomer, unassigned) [Example 22, 2-amino-4-[6-chloro-8-fluoro-4-(6-hydroxy-6-methyl-1,4-oxazepan-4-yl)-2-({[3-(3,4,5-trifluorophenyl)-2,3,5,6,7,7a-hexahydro-1H-pyrrolizin-7a-yl]methyl}oxy)quinazolin-7-yl]benzo[b]thiophene-3-carbonitrile]: in series [1] (setting [4]), the IC50 turned out to be 43 nM.
Take `CC1(O)COCCN(c2nc(OCC34CCCN3C(c3cc(F)c(F)c(F)c3)CC4)nc3c(F)c(-c4cccc5sc(N)c(C#N)c45)c(Br)cc23)C1` (single isomer, unassigned) [Example 25, 2-amino-4-[6-bromo-8-fluoro-4-(6-hydroxy-6-methyl-1,4-oxazepan-4-yl)-2-({[3-(3,4,5-trifluoropheny 1)-2,3,5,6,7,7a-hexahydro-1H-pyrrolizin-7a-yl]methyl}oxy)quinazolin-7-yl]benzo[b]thiophene-3-carb onitrile]: the IC50 in series [1] (AGS cells, 3 h incubation) is over 1000 nM.
In the case of `CC1=NOC2(CCCN(c3nc(OCC45CCCN4C(c4cc(F)c(F)c(F)c4)CC5)nc4c(F)c(-c5ccc(F)c6sc(N)c(C#N)c56)c(Cl)cc34)CC2)C1` (racemic) [Example 3, 2-amino-4-[6-chloro-8-fluoro-4-(3-methyl-2,8-diaza-1-oxaspiro[4.6]undec-2-en-8-yl)-2-({[3-(3,4,5-trifluorophenyl)-2,3,5,6,7,7a-hexahydro-1H-pyrrolizin-7a-yl]methyl}oxy)quinazolin-7-yl]-7-fl uorobenzo[b]thiophene-3-carbonitrile], in series [1] (setting [6]), the half-inhibitory concentration (IC50) was over 1000 nM.

In general, IC50 refers to the concentration needed to halve the response being measured. What is called AUC is the area under the concentration-time curve, a measure of exposure. A word on the Cmax: it is the highest concentration seen after dosing.
